PMC11510805, “In Vivo Effects of a GHR Synthesis Inhibitor During Prolonged Treatment in Dogs” (Pharmaceuticals, 2024)

Tests used:
CYP2C19 = CYP2C19 (Homo sapiens, UniProt P33261); conditions: human liver microsomes
CYP2C8 = target: T1, CYP2C8 (Homo sapiens, UniProt P10632); conditions: human liver microsomes
T1 sequence (P10632 1-490): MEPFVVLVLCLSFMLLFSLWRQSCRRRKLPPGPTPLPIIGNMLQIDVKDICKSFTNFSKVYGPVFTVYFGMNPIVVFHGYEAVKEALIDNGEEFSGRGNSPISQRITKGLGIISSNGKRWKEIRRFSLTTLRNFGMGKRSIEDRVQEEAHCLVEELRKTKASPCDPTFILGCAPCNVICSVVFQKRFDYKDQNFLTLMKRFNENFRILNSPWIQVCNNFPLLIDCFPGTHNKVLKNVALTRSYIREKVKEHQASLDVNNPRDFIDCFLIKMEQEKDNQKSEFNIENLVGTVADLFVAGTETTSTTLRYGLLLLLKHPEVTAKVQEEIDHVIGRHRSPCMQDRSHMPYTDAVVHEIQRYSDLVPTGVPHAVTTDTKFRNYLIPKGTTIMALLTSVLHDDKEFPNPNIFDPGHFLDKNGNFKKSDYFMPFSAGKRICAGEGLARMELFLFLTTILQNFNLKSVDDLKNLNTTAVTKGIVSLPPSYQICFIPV
From the text: For in vitro experiments, a stock solution of C#1 in DMSO was chosen.

CYP2C19, sequence (P33261 whole entry): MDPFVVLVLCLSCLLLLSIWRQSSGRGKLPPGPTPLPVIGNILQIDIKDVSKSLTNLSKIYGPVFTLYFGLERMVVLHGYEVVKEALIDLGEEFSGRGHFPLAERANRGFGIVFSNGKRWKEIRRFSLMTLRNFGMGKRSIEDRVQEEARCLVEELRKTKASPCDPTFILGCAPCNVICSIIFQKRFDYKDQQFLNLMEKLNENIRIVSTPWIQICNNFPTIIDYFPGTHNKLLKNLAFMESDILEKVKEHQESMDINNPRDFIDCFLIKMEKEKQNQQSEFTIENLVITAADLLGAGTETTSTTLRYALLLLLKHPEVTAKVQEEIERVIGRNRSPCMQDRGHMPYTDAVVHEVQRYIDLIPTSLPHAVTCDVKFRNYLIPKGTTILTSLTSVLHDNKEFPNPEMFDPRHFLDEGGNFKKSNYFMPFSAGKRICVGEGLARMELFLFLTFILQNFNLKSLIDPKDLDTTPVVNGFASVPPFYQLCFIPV

Row | Compound | CYP2C19 Imax of reference inhibitor (CYP2C19) [%] | CYP2C8 Imax of reference inhibitor (CYP2C8) [%]
1 | C=C(C)[C@@H]1CCC2=CC(=O)C[C@@H](C)[C@]2(C)C1 [Nootkatone] | 87 | 
2 | O=c1c(O)c(-c2ccc(O)c(O)c2)oc2cc(O)cc(O)c12 [Quercetin] |  | 88
